Among the data in ChEMBL document CHEMBL1124555, “9-Amino-1,2,3,4-tetrahydroacridin-1-ols: synthesis and evaluation as potential Alzheimer's disease therapeutics” (J Med Chem, 1989) are Animals, IC50 and LD50 values, retold here.

The species entered for data set [1] is Mus musculus. The format is functional. The following applies: at 1.25 mg/kg.
Description: Reversal of scopolamine-induced memory impairment in mice at 1.25 mg/Kg administered subcutaneously.
For data set [2], the species on record is Mus musculus. The format is functional. The following applies: at 5 mg/kg.
Description: Reversal of scopolamine-induced memory impairment in mice at 5 mg/Kg administered subcutaneously.
The species named for data set [3] is Mus musculus. The format is functional. The settings on record: at 0.16 mg/kg.
Description: Reversal of scopolamine-induced memory impairment in mice at 0.16 mg/Kg administered subcutaneously.
The species entered for data set [4] is Mus musculus. The format is functional. The settings on record: at 0.63 mg/kg.
Description: Reversal of scopolamine-induced memory impairment in mice at 0.63 mg/Kg administered subcutaneously.
The target of data set [5] is Norepinephrine transporter (Rattus norvegicus, UniProt Q9WTR4).
Sequence of Norepinephrine transporter (Q9WTR4 whole entry): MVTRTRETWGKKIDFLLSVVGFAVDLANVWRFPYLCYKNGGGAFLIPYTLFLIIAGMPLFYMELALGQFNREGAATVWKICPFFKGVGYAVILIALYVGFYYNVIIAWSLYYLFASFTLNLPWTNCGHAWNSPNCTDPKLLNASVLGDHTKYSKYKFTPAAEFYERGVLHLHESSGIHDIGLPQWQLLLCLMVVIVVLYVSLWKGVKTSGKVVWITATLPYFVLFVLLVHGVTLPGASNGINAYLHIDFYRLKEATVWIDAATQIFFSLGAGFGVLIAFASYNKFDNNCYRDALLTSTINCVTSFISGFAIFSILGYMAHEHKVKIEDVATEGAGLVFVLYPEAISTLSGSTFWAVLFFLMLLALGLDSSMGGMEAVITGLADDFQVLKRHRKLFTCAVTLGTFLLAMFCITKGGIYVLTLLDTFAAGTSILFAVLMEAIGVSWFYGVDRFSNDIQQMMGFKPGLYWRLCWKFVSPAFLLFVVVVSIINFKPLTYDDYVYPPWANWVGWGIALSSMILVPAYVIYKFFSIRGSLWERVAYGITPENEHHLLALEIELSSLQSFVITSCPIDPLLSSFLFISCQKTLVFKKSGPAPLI
Description: Inhibition of norepinephrine reuptake in rat whole brains minus cerebellar
For data set [6], the species on record is Mus musculus. The format is functional. The settings on record: at […].
Description: Reversal of scopolamine-induced memory impairment in mice at 0.31 mg/Kg administered subcutaneously.
Data set [7] concerns the target Sodium-dependent dopamine transporter (Rattus norvegicus, UniProt P23977). The format is functional.
Description: Inhibition of the reuptake of dopamine in rat corpora striata.
Data set [8] addresses T1, Acetylcholinesterase (Rattus norvegicus, UniProt P37136).
T1 sequence (P37136 whole entry): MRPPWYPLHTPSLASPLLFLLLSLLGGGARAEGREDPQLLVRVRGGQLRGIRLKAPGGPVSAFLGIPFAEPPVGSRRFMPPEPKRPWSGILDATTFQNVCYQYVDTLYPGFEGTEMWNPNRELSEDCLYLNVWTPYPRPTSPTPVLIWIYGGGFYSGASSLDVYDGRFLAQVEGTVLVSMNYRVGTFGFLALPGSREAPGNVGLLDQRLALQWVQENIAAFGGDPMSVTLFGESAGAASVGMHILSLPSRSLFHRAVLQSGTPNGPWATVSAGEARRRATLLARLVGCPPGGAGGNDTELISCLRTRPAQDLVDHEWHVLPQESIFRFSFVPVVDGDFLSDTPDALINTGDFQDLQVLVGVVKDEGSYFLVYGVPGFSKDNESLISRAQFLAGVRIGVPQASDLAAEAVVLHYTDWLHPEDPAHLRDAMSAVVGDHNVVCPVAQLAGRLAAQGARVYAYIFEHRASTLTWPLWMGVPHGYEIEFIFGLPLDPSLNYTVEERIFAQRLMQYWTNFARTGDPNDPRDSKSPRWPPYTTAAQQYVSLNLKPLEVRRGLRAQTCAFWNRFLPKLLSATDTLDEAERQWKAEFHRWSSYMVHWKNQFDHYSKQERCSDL
Description: In vitro inhibition against acetylcholinesterase in rat striata.

Data set [9] is filed under the species Mus musculus. The format is functional. The settings on record: at 2.5 mg/kg.
Description: Reversal of scopolamine-induced memory impairment in mice at 2.5 mg/Kg administered subcutaneously.
Data set [10] concerns the target Sodium-dependent serotonin transporter (Rattus norvegicus, UniProt P31652). The format is functional.
Description: Inhibition of serotonin reuptake in rat whole brains without cerebellum
Data set [11] in a line: in vivo. The following applies: rat, ip.
Description: Toxicity evaluated in rats after intraperitoneal administration.

Sequence of Sodium-dependent dopamine transporter (P23977 whole entry): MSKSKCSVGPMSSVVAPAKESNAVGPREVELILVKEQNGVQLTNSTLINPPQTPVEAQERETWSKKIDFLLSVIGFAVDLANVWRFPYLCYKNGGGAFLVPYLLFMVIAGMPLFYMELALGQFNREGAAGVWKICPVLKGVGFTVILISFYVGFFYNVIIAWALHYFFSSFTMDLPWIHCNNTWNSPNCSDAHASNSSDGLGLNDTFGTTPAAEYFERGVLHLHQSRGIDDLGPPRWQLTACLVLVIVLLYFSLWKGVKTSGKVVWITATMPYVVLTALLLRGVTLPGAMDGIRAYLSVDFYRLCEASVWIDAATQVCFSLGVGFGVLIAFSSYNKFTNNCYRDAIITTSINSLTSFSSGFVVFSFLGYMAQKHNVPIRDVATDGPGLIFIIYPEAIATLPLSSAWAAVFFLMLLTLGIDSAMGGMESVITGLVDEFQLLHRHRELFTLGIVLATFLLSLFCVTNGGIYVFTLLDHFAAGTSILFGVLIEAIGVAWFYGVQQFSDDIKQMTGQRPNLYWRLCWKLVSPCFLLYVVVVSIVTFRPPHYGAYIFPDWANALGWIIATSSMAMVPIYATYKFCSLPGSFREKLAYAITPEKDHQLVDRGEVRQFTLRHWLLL
Sequence of Sodium-dependent serotonin transporter (P31652 whole entry): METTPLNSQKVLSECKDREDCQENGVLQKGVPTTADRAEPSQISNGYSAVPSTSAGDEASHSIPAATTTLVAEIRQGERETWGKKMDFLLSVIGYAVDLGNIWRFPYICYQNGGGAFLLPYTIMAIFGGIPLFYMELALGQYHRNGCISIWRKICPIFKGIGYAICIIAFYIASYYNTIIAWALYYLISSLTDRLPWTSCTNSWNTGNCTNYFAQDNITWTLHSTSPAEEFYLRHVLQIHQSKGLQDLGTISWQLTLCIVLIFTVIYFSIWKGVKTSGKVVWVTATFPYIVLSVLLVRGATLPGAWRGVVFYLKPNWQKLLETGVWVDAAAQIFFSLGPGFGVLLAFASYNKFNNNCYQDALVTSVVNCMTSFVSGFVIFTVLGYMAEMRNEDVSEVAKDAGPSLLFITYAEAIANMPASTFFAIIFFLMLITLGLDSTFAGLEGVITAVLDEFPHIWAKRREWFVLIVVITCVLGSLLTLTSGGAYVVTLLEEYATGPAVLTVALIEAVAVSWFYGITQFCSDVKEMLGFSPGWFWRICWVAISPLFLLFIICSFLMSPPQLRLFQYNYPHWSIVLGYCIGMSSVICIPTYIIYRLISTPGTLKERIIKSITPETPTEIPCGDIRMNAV

For `Nc1c2c(nc3cc(Cl)ccc13)CCCC2O` (stereo not drawn), the Animals is recorded as 7% in data set [1]; 16% in [2]; 7% in [3]; 0% in data set [4]; 7% in data set [6]; 0% in data set [9]. In addition, the half-maximal inhibitory concentration (IC50) is over 20 µM in [5], over 20 µM in [7], 0.0117 µM in data set [8] and over 20 µM in data set [10]. In addition, the 50% lethal dose (LD50) in data set [11] is over 10 mg/kg.
Regarding `OC1CCCc2nc3cc(Cl)ccc3c(NCc3ccc(F)cc3)c21` (stereo not drawn), the Animals in [1] is listed as 7%; in data set [2] it was 0%; in data set [3] it was 13%; in data set [4], 7%; in data set [6], 7%; in data set [9], 0%. The IC50 in data set [5] came out at 2.2 µM; in data set [7], 4.1 µM; in data set [8], 0.823 µM; in [10] it was 6.6 µM. This compound yielded a median lethal dose (LD50) in data set [11] of over 80 mg/kg.
Regarding `OC1CCCc2nc3ccccc3c(NCc3ccccc3Cl)c21` (stereo not drawn), the Animals in data set [1] was 27%; in [2], 7%; in data set [3], 0%; in data set [4] it was 7%; in data set [6], 27%; in data set [9], 13%. Further, the IC50 is 0.043 µM in [5], 0.13 µM in data set [7], 10.3 µM in [8] and 9.3 µM in [10]. Further, in data set [11], the 50% lethal dose (LD50) is over 80 mg/kg.
Consider `COc1cccc(CNc2c3c(nc4ccccc24)CCCC3O)c1` (stereo not drawn), for which the Animals in [1], in data set [2], in data set [3], in data set [4], in data set [6] and in data set [9] was 0% each time. Also, the half-maximal inhibitory concentration (IC50) is 1.5 µM in data set [5], 2.1 µM in data set [7], 21.1 µM in [8] and 6.2 µM in data set [10]. This compound registered an LD50 in data set [11] of over 80 mg/kg.
Regarding `OC1CCCc2nc3ccccc3c(NCCc3ccccc3)c21` (stereo not drawn), the Animals in data set [1] is given as 23%; in data set [2], 0%; in [3] it was 7%; in data set [4] it was 0%; in data set [6] it was 20%; in data set [9], 0%. For the same compound, the IC50 in data set [5] stood at 1.4 µM; in data set [7] it was 4.7 µM; in data set [8], 3.39 µM; in data set [10], 7.7 µM. For the same compound, the LD50 in data set [11] was over 80 mg/kg.
Turning to `OC1CCCc2nc3cc(F)ccc3c(NCc3ccccc3C(F)(F)F)c21` (stereo not drawn), the Animals was determined as 0% in [1]; 13% in data set [2]; 0% in data set [3]; 7% in data set [4]; 20% in data set [6]; 0% in [9]. Moreover, the half-maximal inhibitory concentration (IC50) in data set [5] came out at 0.54 µM; in data set [7], 0.31 µM; in data set [8] it was 20.1 µM; in data set [10] it was 20 µM. For the same compound, the 50% lethal dose (LD50) in data set [11] is over 80 mg/kg.
On to `OC1CCCc2nc3ccccc3c(NCc3ccc(C(F)(F)F)cc3)c21` (stereo not drawn), for which the Animals in data set [1] is 15%; in data set [2] it was 20%; in data set [3] it was 22%; in [4], 7%; in data set [6], 8%; in [9], 0%. For the same compound, the concentration for half-maximal inhibition (IC50) is 0.27 µM in [5], 2.4 µM in [7], 18.1 µM in data set [8] and 6.6 µM in [10]. The compound further gave a median lethal dose (LD50) in data set [11] of over 80 mg/kg.
For `OC1CCCc2nc3ccccc3c(NCCCC(c3ccccc3)c3ccccc3)c21` (stereo not drawn), the Animals was 13% in data set [1]; 6% in [2]; 20% in data set [3]; 6% in data set [4]; 6% in data set [6]; 0% in data set [9]. For the same compound, the IC50 was found to be 1.5 µM in data set [5], 2.1 µM in data set [7], 49.3 µM in [8] and 5.7 µM in data set [10]. The LD50 in data set [11] is over 80 mg/kg.

A word on the IC50: it is the concentration needed to halve the response being measured. For orientation: LD50 means the dose at which mortality reaches 50%.
